Legend:
Assay in all cases: 10-day proliferation (CTG), Compound B titration + 1000 nM Compound A, Bliss (Example 2)
Assay type in all cases: cell-based
UMUC11 = system: UMUC11; design: key: GDI, -100 to 100; 0 = cell number at T0
Protocol: (§1) A 10-day proliferation assay was performed in a panel of 5 MTAP-deficient and 2 wild type non-small cell lung and bladder cancer cell lines. Optimal cell seeding for all cell lines was determined by assessing the growth over a range of seeding densities in a 384-well format to identify conditions that permitted proliferation for 10 days. Cells were then plated at the optimal seeding density and treated with 20-point, two-fold dilution series of Compound B in combination with a 1000 nM fixed concentration of Compound A. Single agent titrations for Compound A and Compound B were included for comparison. Concentrations tested for Compound A and Compound B alone or in combination ranged from 0.038 nM to 20,000 nM. A plate of cells was harvested at the time of compound addition to quantify the number of cells at the start of the combination (T0). For cell quantification, the harvested cells were lysed with Promega CellTiter-Glo (CTG) reagent according to the manufacturer's protocol and the chemiluminescent signal was detected as described in Example 1 above. Cells were incubated with the drug combinations at 37° C. with 5% CO2 for 10 days. Cells were then lysed with CTG and the chemiluminescent signal was measured.
(§2) CTG values obtained after the 10-day treatment were background subtracted and expressed as a percent of the T0 value set at 100%. Data were plotted against compound concentration and fit with a four-parameter equation to generate single agent dose response curves. Percent inhibition was determined for each combination and single agent concentration compared to a DMSO control. In addition, the overall net growth or death of the cells was calculated and reported as a growth death index (GDI) value on a scale of −100 to 100 with the midpoint (0) being the number of cells at the beginning of the combination (T0).
(§3) Predicted inhibition was calculated using (Ea+Eb)−(Ea*Eb) where E equals the effect (inhibition) of each single agent (a and b). A difference between the observed inhibition percentage and the predicted inhibition percentage greater than 10% was considered synergistic. A Bliss score was only calculated for combinations eliciting >20% growth inhibition (GDI value <80). Since Bliss is calculated based on growth inhibition, scores within cytotoxic dose ranges may not accurately reflect synergistic cytotoxicity.
(§4) Synergy was measured across the Compound B titration with 1000 nM Compound A by Bliss Independence analysis. Bliss scores >10 are indicated by “*” and are considered synergistic. […] Synergy as reported using Bliss may be underrepresented within cytotoxic dose ranges. Growth death index values are shown for the combination titration and each single agent Compound A (Cmpd A) and Compound B (Cmpd B) on a scale of −100 to 100 with the midpoint (0) being the number of cells at the beginning of the combination (T0).

SW900 = system: SW900; design: key: GDI, -100 to 100; 0 = cell number at T0
Protocol: as §1, §2, §3, §4

TCCSUP = system: TCCSUP; design: key: GDI on scale −100 to 100; 0 = cell number at T0
Protocol: as §1, §2
as §3, with “Synergistic growth inhibition was assessed using the Bliss Independence model for each point of the Compound B titration in combination with 1000 nM Compound A. The observed growth inhibition at each point was compared to the predicted inhibition based on the additive activity of each single agent. Predicted” for “Predicted”
(§5) Synergy was measured across the Compound B titration with 1000 nM Compound A by Bliss Independence analysis. Bliss scores >10 are indicated by “*” and are considered synergistic. […] Synergy as reported using Bliss may be underrepresented within cytotoxic dose ranges. Growth death index values are shown for the combination titration and each single agent Compound A (Cmpd A) and Compound B (Cmpd B) on a scale of −100 to 100 with the midpoint (0) being the number of cells at the beginning of the combination (T0). Bliss and GDI values are shown for five MTAP-deficient cell lines: NCI-1H520 (6A), TCCSUP (6B).

NCI-H520 = system: NCI-H520; design: key: GDI on scale −100 to 100; 0 = cell number at T0
Protocol: as §1, §2
as §3, with “Synergistic growth inhibition was assessed using the Bliss Independence model for each point of the Compound B titration in combination with 1000 nM Compound A. The observed growth inhibition at each point was compared to the predicted inhibition based on the additive activity of each single agent. Predicted” for “Predicted”
as §5

[1] = Cmpd B 0.04 nM, combo: + 1000 nM Cmpd A
[2] = Cmpd B 0.1 nM, combo: + 1000 nM Cmpd A
[3] = Cmpd B 0.2 nM, combo: + 1000 nM Cmpd A
[4] = Cmpd B 0.3 nM, combo: + 1000 nM Cmpd A
[5] = Cmpd B 0.6 nM, combo: + 1000 nM Cmpd A
[6] = Cmpd B 1.2 nM, combo: + 1000 nM Cmpd A
[7] = Cmpd B 2.4 nM, combo: + 1000 nM Cmpd A
[8] = Cmpd B 4.9 nM, combo: + 1000 nM Cmpd A
[9] = Cmpd B 9.8 nM, combo: + 1000 nM Cmpd A
[10] = Cmpd B 19.5 nM, combo: + 1000 nM Cmpd A
[11] = Cmpd B 39.1 nM, combo: + 1000 nM Cmpd A
[12] = Cmpd B 78.1 nM, combo: + 1000 nM Cmpd A
[13] = Cmpd B 156.3 nM, combo: + 1000 nM Cmpd A
[14] = Cmpd B 312.5 nM, combo: + 1000 nM Cmpd A
[15] = Cmpd B 625 nM, combo: + 1000 nM Cmpd A
[16] = Cmpd B 1250 nM, combo: + 1000 nM Cmpd A
[17] = Cmpd B 2500 nM, combo: + 1000 nM Cmpd A
[18] = Cmpd B 5000 nM, combo: + 1000 nM Cmpd A
[19] = Cmpd B 10000 nM, combo: + 1000 nM Cmpd A
[20] = Cmpd B 20000 nM, combo: + 1000 nM Cmpd A

Cc1cc(NC(=O)c2ccc(NS(=O)(=O)CCO)cc2N2CCC3(CC2)CC3)nc(N2CCC(F)(F)CC2)n1 [Compound B, N-(2-(4,4-difluoropiperidin-1-yl)-6-methylpyrimidin-4-yl)-4-((2-hydroxyethyl)sulfonamido)-2-(6-azaspiro[2.5]octan-6-yl)benzamide]
GDI (UMUC11; [1]): 100 | GDI (UMUC11; [2]): 100 | GDI (UMUC11; [3]): 100 | GDI (UMUC11; [4]): 100 | GDI (UMUC11; [5]): 100 | GDI (UMUC11; [6]): 100 | GDI (UMUC11; [7]): 100 | GDI (UMUC11; [8]): 100 | GDI (UMUC11; [9]): 100 | GDI (UMUC11; [10]): 100 | GDI (UMUC11; [11]): 100 | GDI (UMUC11; [12]): 100 | GDI (UMUC11; [13]): 100 | GDI (UMUC11; [14]): 87 | GDI (UMUC11; [15]): 72 | GDI (UMUC11; [16]): 70 | GDI (UMUC11; [17]): 74 | GDI (UMUC11; [18]): 63 | GDI (UMUC11; [19]): 32 | GDI (UMUC11; [20]): −88 | GDI (SW900; [1]): 100 | GDI (SW900; [2]): 100 | GDI (SW900; [3]): 100 | GDI (SW900; [4]): 100 | GDI (SW900; [5]): 100 | GDI (SW900; [6]): 100 | GDI (SW900; [7]): 99 | GDI (SW900; [8]): 100 | GDI (SW900; [9]): 100 | GDI (SW900; [10]): 100 | GDI (SW900; [11]): 99 | GDI (SW900; [12]): 100 | GDI (SW900; [13]): 100 | GDI (SW900; [14]): 100 | GDI (SW900; [15]): 86 | GDI (SW900; [16]): 89 | GDI (SW900; [17]): 83 | GDI (SW900; [18]): 75 | GDI (SW900; [19]): 64 | GDI (SW900; [20]): 28 | GDI (TCCSUP; [1]): 100 | GDI (TCCSUP; [2]): 100 | GDI (TCCSUP; [3]): 100 | GDI (TCCSUP; [4]): 100 | GDI (TCCSUP; [5]): 100 | GDI (TCCSUP; [6]): 100 | GDI (TCCSUP; [7]): 100 | GDI (TCCSUP; [8]): 100 | GDI (TCCSUP; [9]): 100 | GDI (TCCSUP; [10]): 100 | GDI (TCCSUP; [11]): 100 | GDI (TCCSUP; [12]): 76 | GDI (TCCSUP; [13]): 38 | GDI (TCCSUP; [14]): 15 | GDI (TCCSUP; [15]): 8 | GDI (TCCSUP; [16]): 10 | GDI (TCCSUP; [17]): 11 | GDI (TCCSUP; [18]): 6 | GDI (TCCSUP; [19]): −5 | GDI (TCCSUP; [20]): −95 | GDI (NCI-H520; [1]): 100 | GDI (NCI-H520; [2]): 100 | GDI (NCI-H520; [3]): 100 | GDI (NCI-H520; [4]): 100 | GDI (NCI-H520; [5]): 100 | GDI (NCI-H520; [6]): 100 | GDI (NCI-H520; [7]): 100 | GDI (NCI-H520; [8]): 100 | GDI (NCI-H520; [9]): 100 | GDI (NCI-H520; [10]): 100 | GDI (NCI-H520; [11]): 100 | GDI (NCI-H520; [12]): 100 | GDI (NCI-H520; [13]): 100 | GDI (NCI-H520; [14]): 85 | GDI (NCI-H520; [15]): 77 | GDI (NCI-H520; [16]): 92 | GDI (NCI-H520; [17]): 92 | GDI (NCI-H520; [18]): 61 | GDI (NCI-H520; [19]): 17 | GDI (NCI-H520; [20]): −57

Nc1nc(=O)n(-c2ccccc2Cl)c2nc(C(F)(F)F)ccc12 [Compound A]
GDI (UMUC11; single agent, 1000 nM Cmpd A): 92 | GDI (SW900; single agent, 1000 nM Cmpd A): 99 | GDI (TCCSUP; single agent, 1000 nM Cmpd A): 88 | GDI (NCI-H520; single agent, 1000 nM Cmpd A): 100
